From patent US9683014B2, “Dipeptide mimetics of NGF and BDNF neurotrophins” (UCHREZHDENIE ROSSIISKOI AKADEMII MEDITSYNSKIKH NAUK …, priority 2009, dated 2017)
Numbered stars: 1 amine (or outer) side, 2 acyl side, 3 side chain; on linkers, the order of the positions; unused ones are H or OH. Bridge positions count the residues as written; N and C are the ends. Square brackets hold non-standard residues; d marks the D form. Peptide text beside a SMILES is read from it. I, II: the chains in the order shown. Ethylenediamine = C(CN[*:2])N[*:1]; Suc = O=C(CCC(=O)[*:2])[*:1]; Ahx = NCCCCCC(=O)O

Legend:
[1] = tested on: Balb/c mice; assay: Behavioral despair test according to Porsolt; format: in vivo, mouse; details: GBK-201 at 0.01 and 0.1 mg/kg i.p., 24 h before the test
Protocol: In order to detect a potential antidepressant activity of the peptide BDNF mimetics, the behavioral despair test was used in the original version (Porsolt R. D., Anton G., Blavet N., Jalfre M. Behavioral despair in rats: a new model sensitive to antidepressants. European Journal of Pharmacology, 1978, 47, 379-391).
For these experiments, male Balb/c mice weighing 20-22 g were used. On day 1, the animals were placed in a narrow vessel filled with water at 22° C. for 10 min. 60 min later a test compound was administered intraperitoneally (GSB-106 at 1 mg/kg, GBK-108 and GBK-201 at 0.01, 0.1, 1.0, 10.0 mg/kg). 24 hours later the animals were placed again in the same conditions to record the retention time of the characteristic immobile posture (abandoning any active defensive and exploratory behavior) for a 5 min test period. Imipramine was administered 60 min prior to the 5 min test period (on day 2). The control groups were treated with distilled water. Each experimental group comprised at least 6 mice.

[2] = tested on: PC12 cells; assay: Differentiation of PC12 cells and modulation of the differentiation-inducing activity of NGF; format: cell-based, rat; details: for distance of branching points of the longest processes from the cell body / length of the longest processes: peptide + NGF (GK-3 10^−6 M, GK-4 10^−7 M, GK-5 10^−6 M)
Protocol: The rat adrenal […] pheochromocytoma cell line PC12 was obtained from the Cell Culture Museum, RAN Institute of Molecular Genetics. The immortalized mouse hippocampal cell line HT-22 was a gift from Prof. F. Viegant, Utrecht University, the Netherlands.
At the time of plating, either NGF (100 ng/ml, positive control) or a test compound was added to a final concentration of 10^−5 to 10^−9 M in the growth medium. Thereafter, the test peptides and NGF were added to the medium every 24 hours in one series of experiments and every 48 hours in another series, for a total of 6 days. The extent of cell differentiation was estimated on the basis of the shape and size of the cells and the number and length of the processes.
NGF was used as a positive control at a final concentration of 100 ng/ml.

[3] = tested on: HT-22 cells; assay: Oxidative stress (H2O2) model in cultured HT-22 cells (MTT test); format: cell-based, mouse; details: for neuronal survival under oxidative stress: added 24 hours prior to the stress exposure, 10^−8 M to 10^−5 M; for Optical density (MTT): 24 h before H2O2
Protocol: To induce an oxidative stress, the cells were placed in a growth medium containing 5% FBS, then a freshly prepared H2O2 solution was added to a final concentration of 1.5 mM and incubated for 30 min at 37° C. and 5% CO2. Thereafter, the medium was replaced with a new one and the cells were cultured for 4 h under the same conditions.
The determination of cell viability was carried out by MTT test. […] At the end of an experiment the growth medium was replaced with an MTT solution (0.5 mg/ml) and incubated for 30 min at 37° C. and 5% CO2. The MTT solution was then removed from the wells and DMSO was added to dissolve the formazan precipitate. Then the optical density was measured using a Multiscan (Thermo) spectrophotometer at a wavelength of 600 nm.

[4] = tested on: Hsp70; assay: Western blot of Hsp70 in HT-22 cells; format: cell-based, mouse; details: for amount of Hsp70: 24 h after addition, GK-1, GK-2 10^−8 and 10^−5 M, GK-3 10^−6 M, GK-4 10^−7 M, GK-5 10^−6 M
Protocol: (§1) The amount of Hsp70, Hsp32 and pTrkA was determined in the cytoplasmic fraction of HT-22 neuronal cells. For heat shock proteins, a test compound was added to the culture 24 hours prior to testing, before the cells were washed off the culture liquid with PBS. For pTrkA, a test compound was added to the culture immediately prior to the cell lysis just for 1 or 2 min, before the cells were washed off the culture liquid with PBS. Then the cells were mixed with the lysis buffer (50 mM Tris-HCl, 5 mM EDTA, 1 mM DTT, 1% Triton X-100, pH 7.5) at 4° C. and lysed for 5 min, then scraped off, transferred into a 1.5 ml centrifuge tube and centrifuged at 13000 rpm and 4° C. for 10 min. The supernatant containing cytosolic proteins was assayed by electrophoresis and immunoblotting. Proteins were separated on a 10% polyacrylamide gel (PAAG) and transferred from PAAG onto a PVDF membrane by electroelution for 45 min. Western blots were pre-incubated for 1 h in a TBST solution containing 1% Tween-20 and supplemented with 5% (w/v) skim milk. Western blots were then incubated with the primary polyclonal anti-Hsp32 antibody diluted 1:1000 or primary monoclonal anti-Hsp70 antibody diluted 1:1000 or primary monoclonal anti-phosphorylated tyrosine kinase A antibody diluted 1:1000 for 1 hour. Then the blots were washed and incubated with a secondary antibody conjugated to horseradish peroxidase (diluted 1:2000) for 1 hour. The detection of Hsp70, Hsp32 and pTrkA was carried out by the ECL reaction on a Kodak film.

[5] = tested on: Hsp32; assay: Western blot of Hsp32 in HT-22 cells; format: cell-based, mouse; details: for amount of Hsp32: 24 h after addition, GK-1, GK-2 10^−8 and 10^−5 M, GK-3 10^−6 M, GK-4 10^−7 M, GK-5 10^−6 M
Protocol: as §1

[6] = biological target: T1, tyrosine kinase A (TrkA) (Mus musculus, UniProt Q3UFB7); assay: Tyrosine kinase A phosphorylation in HT-22 cells (Western blot); format: cell-based; details: first minute of exposure
T1 construct: phosphorylation of tyrosine kinase A in cultured hippocampal neuronal cell line HT22; endogenous in cells; host or cells: HT-22 hippocampal neuronal cell line
T1 sequence (Q3UFB7 34-799): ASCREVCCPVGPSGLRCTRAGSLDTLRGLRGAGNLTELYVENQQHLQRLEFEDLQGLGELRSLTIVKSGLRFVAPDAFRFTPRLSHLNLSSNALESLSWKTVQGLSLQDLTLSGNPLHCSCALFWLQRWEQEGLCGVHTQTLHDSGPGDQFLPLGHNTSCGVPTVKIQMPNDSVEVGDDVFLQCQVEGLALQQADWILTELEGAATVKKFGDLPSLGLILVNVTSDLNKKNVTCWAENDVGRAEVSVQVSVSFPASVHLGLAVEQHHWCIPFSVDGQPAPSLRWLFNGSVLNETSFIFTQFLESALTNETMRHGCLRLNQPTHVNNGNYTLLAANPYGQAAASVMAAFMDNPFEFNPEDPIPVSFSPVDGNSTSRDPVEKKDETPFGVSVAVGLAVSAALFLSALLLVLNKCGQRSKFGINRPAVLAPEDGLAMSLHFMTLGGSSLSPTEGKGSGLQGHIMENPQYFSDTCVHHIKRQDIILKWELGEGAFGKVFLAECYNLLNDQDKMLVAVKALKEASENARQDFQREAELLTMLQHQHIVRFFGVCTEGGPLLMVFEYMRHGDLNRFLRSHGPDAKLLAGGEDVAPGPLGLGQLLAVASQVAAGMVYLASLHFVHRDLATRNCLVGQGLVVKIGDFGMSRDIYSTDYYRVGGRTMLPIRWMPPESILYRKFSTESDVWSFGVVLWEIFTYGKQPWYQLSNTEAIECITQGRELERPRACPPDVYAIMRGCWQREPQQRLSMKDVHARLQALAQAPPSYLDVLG
Protocol: as §1

[7] = tested on: PC12 cell line; assay: Cellular model of Parkinson's disease (MPTP, MTT test); format: cell-based, rat; details: added 24 hours prior to MPTP 1 mM
Protocol: To produce a model for Parkinson's disease, MPTP was used at a final concentration of 1 mM (Shimoke K., Chiba H. Nerve growth factor prevents 1-methyl-[…]-1,2,3,6-tetrahydropyridine-induced cell death via the Akt pathway by suppressing caspase-3-like activity using PC12 cells: relevance to therapeutic application for Parkinson's disease. J. Neurosci. Res. 2001, 63, 402-409). MPTP was added to the cell growth medium containing 1% FBS at 24 hours after passage. The peptides were added to the cell growth medium concurrently with MPTP or 24 h before MPTP. Cell viability was determined at 24 h using an MTT test.

[8] = tested on: HT-22 cells; details: added 24 hours prior to glutamate
Protocol: The determination of cell viability was carried out by MTT test. MTT is a water soluble tetrazolium salt of yellow color which readily permeates cells. In living cells, MTT is converted into water insoluble formazan crystals of violet color. At the end of an experiment the growth medium was replaced with an MTT solution (0.5 mg/ml) and incubated for 30 min at 37° C. and 5% CO2. The MTT solution was then removed from the wells and DMSO was added to dissolve the formazan precipitate. Then the optical density was measured using a Multiscan (Thermo) spectrophotometer at a wavelength of 600 nm.

[9] = GK-1 10^−5 M added 30 minutes before GK-2

CSCC[C@H](NC(=O)[C@H](CC(=O)O)NC(C)=O)C(N)=O [GBK-201, N-acetyl-aspartyl-methionine amide] (Ac-Asp-Met-NH2)
immobility time [1]: increased the immobility time

NCCCC[C@H](NC(=O)[C@H](CCC(=O)O)NC(=O)CCC(=O)O)C(N)=O [GK-1, N-monosuccinyl-glutamyl-lysine amide] (Suc-Glu-Lys-NH2)
decrease of the differentiation-promoting effect of NGF ([2]; GK-1 10^−5 M, counting differentiated and undifferentiated cells): 50% | effect on the neuroprotective effect of GK-2 [3, 9]: eliminated the neuroprotective effect of GK-2 | neuronal survival under oxidative stress [3]: impaired the neuronal survival | amount of Hsp70 [4]: no effect | amount of Hsp70 induced by GK-2 [4, 9]: no increase | amount of Hsp32 [5]: no effect | amount of Hsp32 induced by GK-2 [5, 9]: no increase | level of phosphorylated tyrosine kinase A [6]: decreased

NCCCC[C@H](NC(=O)[C@H](CCC(=O)O)NC(=O)CCC(=O)O)C(=O)NCCCCCC(=O)NCCCNC(=O)CCCCCNC(=O)[C@H](CCCCN)NC(=O)[C@H](CCC(=O)O)NC(=O)CCC(=O)O [GK-2a, bis-(N-monosuccinyl-glutamyl-lysyl-6-aminohexanoic acid) trimethylenediamide]
Optical density (MTT) ([3]; Table 1.5, 10^−5M, control 0.1275 ± 0.021, H2O2 0.087 ± 0.006): 0.108 ± 0.019^ | Optical density (MTT) ([3]; Table 1.5, 10^−6M, control 0.1275 ± 0.021, H2O2 0.087 ± 0.006): 0.429 ± 0.02 | Optical density (MTT) ([3]; Table 1.5, 10^−7M, control 0.1275 ± 0.021, H2O2 0.087 ± 0.006): 0.449 ± 0.024 | Optical density (MTT) ([3]; Table 1.5, 10^−8M, control 0.1275 ± 0.021, H2O2 0.087 ± 0.006): 0.106 ± 0.028 | neuronal survival under oxidative stress [3]: improved the neuronal survival | protective effect against MPTP [7]: protective effect

NCCCC[C@H](NC(=O)[C@H](CCC(=O)O)NC(=O)CCC(=O)O)C(=O)NCCCCCNC(=O)[C@H](CCCCN)NC(=O)[C@H](CCC(=O)O)NC(=O)CCC(=O)O [GK-2b, bis-(N-monosuccinyl-glutamyl-lysine)pentamethylenediamide]
neuronal survival under oxidative stress [3]: improved the neuronal survival

NCCCC[C@H](NC(=O)[C@H](CCC(=O)O)NC(=O)CCC(=O)O)C(=O)NCCNC(=O)[C@H](CCCCN)NC(=O)[C@H](CCC(=O)O)NC(=O)CCC(=O)O [GK-2e, bis-(N-monosuccinyl-glutamyl-lysine)ethylenediamide] (I: Suc-Glu-Lys / II: Suc-Glu-Lys; linker I:C-II:C via Ethylenediamine)
neuronal survival under oxidative stress [3]: improved the neuronal survival

CC(=O)N[C@@H](CCCCN)C(=O)N[C@@H](CCC(=O)O)C(N)=O [GK-3, N-acetyl-lysyl-glutamic acid amide] (Ac-Lys-Glu-NH2)
distance of branching points of the longest processes from the cell body [2]: 25 μm | length of the longest processes [2]: not significantly different | Optical density (MTT) ([3]; Table 1.6, 10^−5M, control 0.111 ± 0.009, H2O2 0.093 ± 0.004): 0.109 ± 0.019 | Optical density (MTT) ([3]; Table 1.6, 10^−6M, control 0.111 ± 0.009, H2O2 0.093 ± 0.004): 0.110 ± 0.014^ | Optical density (MTT) ([3]; Table 1.6, 10^−7M, control 0.111 ± 0.009, H2O2 0.093 ± 0.004): 0.099 ± 0.014 | Optical density (MTT) ([3]; Table 1.6, 10^−8M, control 0.111 ± 0.009, H2O2 0.093 ± 0.004): 0.091 ± 0.014 | neuronal survival under oxidative stress [3]: improved the neuronal survival | protective effect against MPTP [7]: protective effect | amount of Hsp70 [4]: no effect on Hsp70 | amount of Hsp32 [5]: small increase | level of phosphorylated tyrosine kinase A [6]: increased

CC(=O)NC(CCCCN)C(=O)NC(CCC(=O)O)C(=O)NCCCCCCNC(=O)C(CCC(=O)O)NC(=O)C(CCCCN)NC(C)=O (stereo not drawn) [GK-4, bis-(N-acetyl-lysyl-glutamic acid) hexamethylenediamide]
Max. length of cell processes, μm on day 6 ([2]; 10^−6M + NGF 30 ng/ml): 67 ± 4.5′ μm | Max. length of cell processes, μm on day 6 ([2]; 10^−6M + NGF 50 ng/ml): 73 ± 9.5′ μm | Max. length of cell processes, μm on day 6 ([2]; 10^−6M + NGF 100 ng/ml): 55 ± 11.3′ μm | Max. length of cell processes, μm on day 6 ([2]; 10^−7M + NGF 30 ng/ml): 52 ± 10.3′ μm | Max. length of cell processes, μm on day 6 ([2]; 10^−7M + NGF 50 ng/ml): 56 ± 13.2′ μm | Max. length of cell processes, μm on day 6 ([2]; 10^−7M + NGF 100 ng/ml): 65 ± 12.2′ μm | intercalary neurons in the differentiated cell population ([2]; GK-4 10^−7 M + NGF): 90% | distance of branching points of the longest processes from the cell body [2]: 20 μm | length of the longest processes [2]: 65 μm | protective effect against MPTP [7]: protective effect | protective effect against glutamate cytotoxicity [8]: protective effect | amount of Hsp70 [4]: significant increase | amount of Hsp32 [5]: no effect on Hsp32

NCCCCCC(=O)NCC(=O)N[C@@H](CCCCN)C(N)=O [GK-5, N-(6-aminocaproyl)-glycyl-lysine amide] (H-[Ahx]-Gly-Lys-NH2)
distance of branching points of the longest processes from the cell body [2]: not different | length of the longest processes [2]: 55 μm | differentiation of PC-12 cells ([2]; peptide alone, 10^−8 to 10^−5 M, NGF 100 ng/ml as positive control): differentiation-promoting effect at 10^−6 M and 10^−5 M | Optical density (MTT) ([3]; Table 1.8, 10^−5M, control 0.097 ± 0.009, H2O2 0.056 ± 0.009): 0.065 ± 0.008 | Optical density (MTT) ([3]; Table 1.8, 10^−6M, control 0.097 ± 0.009, H2O2 0.056 ± 0.009): 0.066 ± 0.008^ | Optical density (MTT) ([3]; Table 1.8, 10^−7M, control 0.097 ± 0.009, H2O2 0.056 ± 0.009): 0.062 ± 0.009 | Optical density (MTT) ([3]; Table 1.8, 10^−8M, control 0.097 ± 0.009, H2O2 0.056 ± 0.009): 0.058 ± 0.007 | neuronal survival under oxidative stress [3]: improved the neuronal survival | protective effect against MPTP [7]: inactive | amount of Hsp70 [4]: no effect on Hsp70 | amount of Hsp32 [5]: increase in the synthesis of Hsp32 | level of phosphorylated tyrosine kinase A [6]: increased

NCCCCCC(=O)NCC(=O)N[C@@H](CCCCN)C(=O)NCCCCCCNC(=O)[C@H](CCCCN)NC(=O)CNC(=O)CCCCCN [GK-6, bis-(N-(6-aminocaproyl)glycyl-lysine) hexamethylenediamide]
neuronal survival under oxidative stress [3]: improved the neuronal survival
